These results are taken from PubChem BioAssay AID330 (DTP/NCI, 2004).

Several values for one entry are separate records, joined by “and”; a condition that tells them apart may be missing. Equal values may be shown once. Inconclusive results and toxic doses are left out.

This assay concerns P388 leukemia ip, CD2F1 mice, survival T/C. Kind of assay: NCI In Vivo Anticancer Drug Screen. Data for tumor model P388 Leukemia (intraperitoneal) in CD2F1 (CDF1) mice. The settings on record: endpoint: median survival time, higher = longer survival. Summed up: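 Mice carrying the transplanted tumor received test compound or vehicle. Survival was recorded in each group, and the value is the treated-group measurement divided by that of the vehicle-treated control group.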

Where [1] appears, read: dose: 50.0 mg/kg/injection, schedule: Q01DX005 (ip), vehicle: Klucel (hydroxypropylcellulose) (HPC).
Setting [2] is: dose: 100.0 mg/kg/injection, schedule: Q01DX005 (ip), vehicle: Klucel (hydroxypropylcellulose) (HPC).
Setting [3] is: dose: 200.0 mg/kg/injection, schedule: Q01DX005 (ip), vehicle: Klucel (hydroxypropylcellulose) (HPC).
[4] abbreviates: dose: 50.0 mg/kg/injection, schedule: Q01DX005 (ip), vehicle: saline.
[5] abbreviates: dose: 100.0 mg/kg/injection, schedule: Q01DX005 (ip), vehicle: saline.
The mark [6] stands for this setting: dose: 60.0 mg/kg/injection, schedule: Q01DX005 (ip), vehicle: saline with Tween-80.
The mark [7] stands for this setting: dose: 120.0 mg/kg/injection, schedule: Q01DX005 (ip), vehicle: saline with Tween-80.
Where [8] appears, read: dose: 240.0 mg/kg/injection, schedule: Q01DX005 (ip), vehicle: saline with Tween-80.
Where [9] appears, read: dose: 100.0 mg/kg/injection, schedule: Q04DX003 (ip), vehicle: saline with Tween-80.
[10] abbreviates: dose: 50.0 mg/kg/injection, schedule: Q01DX009 (ip), vehicle: Klucel (hydroxypropylcellulose) (HPC).
Setting [11] is: dose: 100.0 mg/kg/injection, schedule: Q01DX009 (ip), vehicle: Klucel (hydroxypropylcellulose) (HPC).
[12] abbreviates: dose: 200.0 mg/kg/injection, schedule: Q01DX009 (ip), vehicle: Klucel (hydroxypropylcellulose) (HPC).

Consider `O=C(OC1(c2ccc3ccccc3c2)OC(=O)c2ccccc21)c1ccccc1C(=O)c1cccc2ccccc12` (stereo unspecified), for which the T/C by setting is: (dose: 100.0 mg/kg/injection, schedule: Q01DX001 (ip), vehicle: Klucel (hydroxypropylcellulose) (HPC)) 92 % of control; (dose: 200.0 mg/kg/injection, schedule: Q01DX001 (ip), vehicle: Klucel (hydroxypropylcellulose) (HPC)) 91 % of control; (dose: 400.0 mg/kg/injection, schedule: Q01DX001 (ip), vehicle: Klucel (hydroxypropylcellulose) (HPC)) 91 % of control.
As for `CN1CN(c2ccc([N+](=O)[O-])cc2)N=N1`, the T/C by setting is: under setting [1], 95 % of control; under setting [2], 97 % of control; under setting [3], 94 % of control.
On to `CCN(CC)CCNC(=O)C(=O)NCCN(CC)CC`, for which the T/C was 97 % of control under setting [4] and 99 % of control under setting [5].
On the same counts, the results for `C[Si](C)(C)CN1CCCC1` are 108 % of control and 101 % of control.
Regarding `CCC1(CC2CCCN(C)C2)c2ccccc2Sc2ccccc21` (stereo unspecified), the T/C is 98 % of control (dose: 12.5 mg/kg/injection, schedule: Q01DX005 (ip), vehicle: saline); 98 % of control (dose: 25.0 mg/kg/injection, schedule: Q01DX005 (ip), vehicle: saline); 91 % of control under setting [4].
Take `CN(C)CCSc1c2ccccc2nc2ccccc12`: the T/C by setting is: (dose: 12.5 mg/kg/injection, schedule: Q01DX005 (ip), vehicle: Klucel (hydroxypropylcellulose) (HPC)) 110 % of control; (dose: 25.0 mg/kg/injection, schedule: Q01DX005 (ip), vehicle: Klucel (hydroxypropylcellulose) (HPC)) 110 % of control and 119 % of control; under setting [1], 100 % of control (2×) and 101 % of control.
With `Cn1cc(/C=C/C(=O)c2ccccc2[N+](=O)[O-])c2ccccc21`, the T/C is 95 % of control under setting [6], 89 % of control under setting [7] and 89 % of control under setting [8].
Take `COc1ccc(CC2C(=O)NC(C)C(=O)N(C)C3C(=O)N(C)C(Cc4ccc(O)c(c4)Oc4ccc(cc4)C3O)C(=O)NC(C)C(=O)NC(C)C(=O)N2C)cc1` (stereo unspecified) (tested in a mixture with another compound): the T/C reads like this: (dose: 1.0 mg/kg/injection, schedule: Q01DX009 (ip), vehicle: Klucel (hydroxypropylcellulose) (HPC)) 158 % of control; (dose: 2.0 mg/kg/injection, schedule: Q01DX009 (ip), vehicle: Klucel (hydroxypropylcellulose) (HPC)) 158 % of control; (dose: 4.0 mg/kg/injection, schedule: Q01DX009 (ip), vehicle: Klucel (hydroxypropylcellulose) (HPC)) 155 % of control; (dose: 250.0 micrograms/kg/injection, schedule: Q01DX009 (ip), vehicle: saline) 156 % of control; (dose: 500.0 micrograms/kg/injection, schedule: Q01DX009 (ip), vehicle: saline) 152 % of control; (dose: 1000.0 micrograms/kg/injection, schedule: Q01DX009 (ip), vehicle: saline) 158 % of control.
`Nc1oc([N+](=O)[O-])cc1[N+](=O)[O-]`: the T/C was 106 % of control (dose: 100.0 mg/kg/injection, schedule: Q01DX009 (ip), vehicle: saline) and 118 % of control (dose: 200.0 mg/kg/injection, schedule: Q01DX009 (ip), vehicle: saline).
Regarding `Cc1c2cnccc2c(C)c2c1c1ccccc1n2CCOC(=O)c1ccccc1`, the T/C was 95 % of control under setting [9]; 86 % of control (dose: 200.0 mg/kg/injection, schedule: Q04DX003 (ip), vehicle: saline with Tween-80); 86 % of control (dose: 400.0 mg/kg/injection, schedule: Q04DX003 (ip), vehicle: saline with Tween-80).
In the case of `C1=C(/C=C2\CCCc3c(-c4ccccc4)cc(-c4ccccc4)[o+]c32)CCC/C1=C\C1=C2OC(c3ccccc3)=CC(c3ccccc3)=C2CCC1`, the T/C runs as follows: under setting [6], 102 % of control; under setting [7], 93 % of control; under setting [8], 87 % of control.
On to `O=[n+]1ccn([O-])c2ccccc21.[Mn].[O-][Cl+3]([O-])([O-])O`, for which the T/C under setting [9] is 118 % of control.
For the compound `COc1cc(OC)c(C(C)=O)c(O)c1C`, the T/C runs as follows: (dose: 12.5 mg/kg/injection, schedule: Q01DX009 (ip), vehicle: distilled water + Tween-80) 94 % of control; (dose: 25.0 mg/kg/injection, schedule: Q01DX009 (ip), vehicle: distilled water + Tween-80) 101 % of control; (dose: 50.0 mg/kg/injection, schedule: Q01DX009 (ip), vehicle: distilled water + Tween-80) 98 % of control; (dose: 100.0 mg/kg/injection, schedule: Q01DX009 (ip), vehicle: distilled water + Tween-80) 99 % of control; (dose: 200.0 mg/kg/injection, schedule: Q01DX009 (ip), vehicle: distilled water + Tween-80) 109 % of control; (dose: 400.0 mg/kg/injection, schedule: Q01DX009 (ip), vehicle: distilled water + Tween-80) 100 % of control.
Turning to `O=C1C(Cl)=C(N2CCN(C3=C(Cl)C(=O)c4ccccc4C3=O)CC2)C(=O)c2ccccc21`, the T/C is 100 % of control and 104 % of control (dose: 1.5 mg/kg/injection, schedule: Q01DX009 (ip), vehicle: saline); 100 % of control and 107 % of control (dose: 3.0 mg/kg/injection, schedule: Q01DX009 (ip), vehicle: saline); 104 % of control and 97 % of control (dose: 6.0 mg/kg/injection, schedule: Q01DX009 (ip), vehicle: saline).
On to `COc1cc(C2=[N+](C)CCc3cc4c(cc32)OCO4)cc(OC)c1OC`, for which the T/C under setting [1] is 99 % of control and the T/C under setting [2] was 103 % of control.
In the case of `CCCCCCCCCCCCCCCC(=O)NCC(=O)NC1C(CO)OC(Nc2ncnc3nc[nH]c23)C(O)C1O` (stereo unspecified), the T/C by setting is: (dose: 0.13 mg/kg/injection, schedule: Q01DX009 (ip), vehicle: water) 110 % of control; (dose: 0.25 mg/kg/injection, schedule: Q01DX009 (ip), vehicle: water) 107 % of control; (dose: 1.0 mg/kg/injection, schedule: Q01DX009 (ip), vehicle: water) 96 % of control; (dose: 2.0 mg/kg/injection, schedule: Q01DX009 (ip), vehicle: water) 98 % of control.
In the case of `COc1ccc(/C=N/N2CN(C(C)C(=O)O)C(O)(CCl)N=C2N)cc1OC` (stereo unspecified), the T/C runs as follows: (dose: 60.0 mg/kg/injection, schedule: Q01DX005 (ip), vehicle: saline) 108 % of control; (dose: 120.0 mg/kg/injection, schedule: Q01DX005 (ip), vehicle: saline) 114 % of control.
On to `CSc1cccc(NC(=O)N2CCN(C)CC2)c1`, for which the T/C is 89 % of control under setting [10], 91 % of control under setting [11] and 94 % of control under setting [12].
With `CC(=O)c1cccc(OCC(O)CN2CCN(c3ccc(C)cc3)CC2)c1` (stereo unspecified), the T/C is 107 % of control (dose: 100.0 mg/kg/injection, schedule: Q04DX003 (ip), vehicle: Klucel (hydroxypropylcellulose) (HPC)) and 91 % of control (dose: 400.0 mg/kg/injection, schedule: Q04DX003 (ip), vehicle: Klucel (hydroxypropylcellulose) (HPC)).
`CCCCCCC(=O)/C=C/c1ccccc1OCOC`: the T/C was 100 % of control (2×) and 108 % of control under setting [10]; 99 % of control and 100 % of control and 106 % of control under setting [11]; 103 % of control and 111 % of control under setting [12]; 117 % of control (dose: 400.0 mg/kg/injection, schedule: Q01DX009 (ip), vehicle: Klucel (hydroxypropylcellulose) (HPC)).
Turning to `O=C1Oc2ccccc2[C@@H]2[C@H]1[C@@H]1C(=O)Oc3ccccc3[C@@H]12`, the T/C by setting is: under setting [1], 97 % of control; under setting [2], 97 % of control; under setting [3], 100 % of control.
In the case of `CCCCNC1C2CCC(C)(C1O)C2(C)C` (stereo unspecified), the T/C under setting [1] was 97 % of control.
As to `CC1(O)CC23CC1CCC2(C)C12CCCC(C)(C(=O)O1)C2CC3O` (stereo unspecified), the T/C was 99 % of control (dose: 12.5 mg/kg/injection, schedule: Q01DX009 (ip), vehicle: Klucel (hydroxypropylcellulose) (HPC)); 100 % of control (dose: 25.0 mg/kg/injection, schedule: Q01DX009 (ip), vehicle: Klucel (hydroxypropylcellulose) (HPC)); 108 % of control under setting [10]; 103 % of control under setting [11]; 100 % of control under setting [12].
Regarding `Nc1cccc(CC(=O)Nc2ccccc2)c1`, the T/C reads like this: (dose: 100.0 mg/kg/injection, schedule: Q04DX002 (ip), vehicle: Klucel (hydroxypropylcellulose) (HPC)) 100 % of control; (dose: 200.0 mg/kg/injection, schedule: Q04DX002 (ip), vehicle: Klucel (hydroxypropylcellulose) (HPC)) 97 % of control.
